The target in one test is Mu-type opioid receptor (Homo sapiens, UniProt P35372). The test is described as follows: Counterscreen for agonists of heterodimerization of the mu 1 (OPRM1) and delta 1 (OPRD1) opioid receptors: Luminescence-based cell-based high throughput dose response assay to identify agonists of OPRM1 homodimerization. It is filed as functional.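 Further: U2OS cells expressing OPRM1 and beta-arrestin as split beta-galactosidase partners.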
Test [1] has as its target 5-hydroxytryptamine receptor 5A (Homo sapiens, UniProt P47898). The test is described as follows: Counterscreen for agonists of OPRM1-OPRD1 heterodimerization: luminescence-based cell-based high throughput dose response assay to identify agonists of 5-hydroxytryptamine (serotonin) 5A receptor (HTR5A). [Related pubchem assays (depositor defined):AID504326, AID504355, AID504692, AID504904, AID504905]. Type of test: functional. On the technique in general: A counterscreen serves to expose hits that act by an unwanted route or on another target.

Test [2] has as its target Delta-type opioid receptor (Homo sapiens, UniProt P41143). Briefly: Counterscreen for agonists of heterodimerization of the mu 1 (OPRM1) and delta 1 (OPRD1) opioid receptors: Luminescence-based cell-based high throughput dose response assay to identify agonists of OPRD1 homodimerization. [Related pubchem assays (depositor defined):AID504326, AID504355, AID504692, AID504904, AID504905]. It is filed as functional.

Test [3] concerns the target T1, Long-chain-fatty-acid--AMP ligase FadD28 (Mycobacterium tuberculosis, UniProt P9WQ59).
T1 sequence (P9WQ59 whole entry): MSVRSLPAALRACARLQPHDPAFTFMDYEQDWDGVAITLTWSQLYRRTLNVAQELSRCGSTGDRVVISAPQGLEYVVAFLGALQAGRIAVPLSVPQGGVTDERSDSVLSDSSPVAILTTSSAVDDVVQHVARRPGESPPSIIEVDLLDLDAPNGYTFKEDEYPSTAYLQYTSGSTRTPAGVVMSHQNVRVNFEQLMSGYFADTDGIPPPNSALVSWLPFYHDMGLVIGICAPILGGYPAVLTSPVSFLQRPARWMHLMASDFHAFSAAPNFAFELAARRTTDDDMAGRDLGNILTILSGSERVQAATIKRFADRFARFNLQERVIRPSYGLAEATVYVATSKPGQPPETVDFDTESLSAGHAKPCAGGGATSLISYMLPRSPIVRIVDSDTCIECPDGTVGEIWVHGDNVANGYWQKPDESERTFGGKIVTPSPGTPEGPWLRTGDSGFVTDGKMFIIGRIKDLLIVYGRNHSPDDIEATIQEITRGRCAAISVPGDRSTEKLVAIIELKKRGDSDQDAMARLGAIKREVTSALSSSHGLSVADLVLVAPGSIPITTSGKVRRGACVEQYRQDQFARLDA
Briefly: Fluorescence polarization aasay to screen for inhibitors that compete for the binding of FadD28 to a bisubstrate Measured in Biochemical System Using Plate Reader - 2147-01_Inhibitor_Dose_CherryPick_Activity. It is filed as functional, Mycobacterium tuberculosis H37Rv. For orientation: Polarisation of emitted light reports the rotation of a fluorescent probe.

Test [4] deals with T2, Rac GTPase-activating protein 1 (Homo sapiens, UniProt Q9H0H5).
T2 sequence (Q9H0H5 whole entry): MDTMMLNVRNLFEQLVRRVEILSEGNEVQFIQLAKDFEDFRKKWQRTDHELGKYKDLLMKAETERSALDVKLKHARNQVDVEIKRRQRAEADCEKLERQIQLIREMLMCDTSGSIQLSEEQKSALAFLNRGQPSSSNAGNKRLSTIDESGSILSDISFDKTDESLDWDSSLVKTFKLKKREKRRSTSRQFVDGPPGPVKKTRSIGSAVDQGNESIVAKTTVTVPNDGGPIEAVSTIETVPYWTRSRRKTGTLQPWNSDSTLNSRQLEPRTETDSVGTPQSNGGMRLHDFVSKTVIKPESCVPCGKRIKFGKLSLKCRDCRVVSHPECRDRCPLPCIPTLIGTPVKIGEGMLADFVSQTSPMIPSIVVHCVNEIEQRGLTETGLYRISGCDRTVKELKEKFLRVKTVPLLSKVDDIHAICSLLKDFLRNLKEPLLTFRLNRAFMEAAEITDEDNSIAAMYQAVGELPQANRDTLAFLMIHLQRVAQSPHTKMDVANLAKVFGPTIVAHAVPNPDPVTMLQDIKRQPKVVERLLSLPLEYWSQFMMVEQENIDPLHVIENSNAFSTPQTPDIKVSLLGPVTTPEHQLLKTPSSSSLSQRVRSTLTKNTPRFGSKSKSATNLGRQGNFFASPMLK
Briefly: MgcRacGAP GTPase-activating activity inhibitors, confirmation, biochemical, ADP Hunter fluorescence, primary and confirmatory (AID 624330). It is filed as functional.

Test [5] can be described thus: HeLa cell cytotoxicity, dose response, cytotoxicity control for MgcRacGAP inhibitor project (AID 624300). Type of test: functional.
Test [6] concerns the target T3, Sentrin-specific protease 8 (Homo sapiens, UniProt Q96LD8).
T3 sequence (Q96LD8 whole entry): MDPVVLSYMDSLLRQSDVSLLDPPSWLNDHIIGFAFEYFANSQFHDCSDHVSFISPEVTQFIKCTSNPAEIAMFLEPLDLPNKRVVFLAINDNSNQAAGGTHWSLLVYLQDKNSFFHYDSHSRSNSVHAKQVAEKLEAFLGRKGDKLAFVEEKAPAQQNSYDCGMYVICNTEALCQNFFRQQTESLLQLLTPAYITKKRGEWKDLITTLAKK
It is filed as functional.

In the next test the target is Nonstructural protein 1 (Influenza A virus, UniProt Q194T2). It is filed as functional, Influenza A virus (A/California/07/2009(H1N1)).
Chain of Nonstructural protein 1 (Q194T2 whole entry): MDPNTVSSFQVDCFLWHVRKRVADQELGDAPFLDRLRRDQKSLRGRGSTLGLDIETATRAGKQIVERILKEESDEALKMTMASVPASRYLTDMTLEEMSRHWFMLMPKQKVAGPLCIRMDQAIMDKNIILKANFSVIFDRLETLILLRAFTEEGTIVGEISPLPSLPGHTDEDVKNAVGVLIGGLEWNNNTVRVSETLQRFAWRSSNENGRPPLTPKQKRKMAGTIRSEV
Test [7] has as its target T3, Sentrin-specific protease 8. It is filed as functional. This is another data set of the same source.
Test [8] is described as follows: inhibitors of intracellular T. cruzi replication, confirmation, NIH3T3 host cells, beta-gal luminescence (AID 2044).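 Further: intracellular parasites grown in NIH/3T3 mouse fibroblasts as host cells; luminescent beta-galactosidase reporter signal from transgenic T. cruzi replicating inside host cells; inhibitors lower the luminescence signal.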 It is filed as functional, cell-based.
Test [9] can be described thus: cytotoxicity toward NIH3T3 fibroblasts, dose response, counter-screen, cell-based, ATP luminescence, mouse fibroblasts (AID 2010).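 Further: cells exposed to compound for about 90 hours before reading.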 Type of test: functional.
The target of test [10] is T4, DNA repair and recombination protein RAD54-like (Homo sapiens, UniProt Q92698).
T4 sequence (Q92698 whole entry): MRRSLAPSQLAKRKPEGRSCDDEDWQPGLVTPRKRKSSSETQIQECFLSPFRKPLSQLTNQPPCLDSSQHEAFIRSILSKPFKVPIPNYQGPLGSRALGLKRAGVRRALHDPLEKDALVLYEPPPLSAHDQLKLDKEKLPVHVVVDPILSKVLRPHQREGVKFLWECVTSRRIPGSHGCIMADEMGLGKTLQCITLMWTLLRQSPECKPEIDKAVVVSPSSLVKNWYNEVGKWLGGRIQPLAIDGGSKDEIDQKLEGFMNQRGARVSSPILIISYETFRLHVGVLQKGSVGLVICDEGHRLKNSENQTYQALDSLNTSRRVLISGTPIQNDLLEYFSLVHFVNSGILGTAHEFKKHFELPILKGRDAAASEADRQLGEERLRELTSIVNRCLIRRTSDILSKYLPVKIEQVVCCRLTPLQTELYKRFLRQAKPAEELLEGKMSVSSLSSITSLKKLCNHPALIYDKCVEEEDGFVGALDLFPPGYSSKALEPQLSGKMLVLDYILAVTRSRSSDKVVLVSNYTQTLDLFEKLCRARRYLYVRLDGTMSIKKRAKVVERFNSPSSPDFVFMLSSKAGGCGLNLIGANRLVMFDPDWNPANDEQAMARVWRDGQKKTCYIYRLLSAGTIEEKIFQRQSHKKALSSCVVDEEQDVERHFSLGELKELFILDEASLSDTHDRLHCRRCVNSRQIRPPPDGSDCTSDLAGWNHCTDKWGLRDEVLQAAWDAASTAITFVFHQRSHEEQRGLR
The test is described as follows: inhibitors of human RAD54 branch migration, confirmation, biochemical, fluorescence, cherry-picked samples, dose series (AID 651657). It is filed as functional.

The target of test [11] is T5, Short transient receptor potential channel 4 (Mus musculus, UniProt Q9QUQ5).
T5 sequence (Q9QUQ5 whole entry): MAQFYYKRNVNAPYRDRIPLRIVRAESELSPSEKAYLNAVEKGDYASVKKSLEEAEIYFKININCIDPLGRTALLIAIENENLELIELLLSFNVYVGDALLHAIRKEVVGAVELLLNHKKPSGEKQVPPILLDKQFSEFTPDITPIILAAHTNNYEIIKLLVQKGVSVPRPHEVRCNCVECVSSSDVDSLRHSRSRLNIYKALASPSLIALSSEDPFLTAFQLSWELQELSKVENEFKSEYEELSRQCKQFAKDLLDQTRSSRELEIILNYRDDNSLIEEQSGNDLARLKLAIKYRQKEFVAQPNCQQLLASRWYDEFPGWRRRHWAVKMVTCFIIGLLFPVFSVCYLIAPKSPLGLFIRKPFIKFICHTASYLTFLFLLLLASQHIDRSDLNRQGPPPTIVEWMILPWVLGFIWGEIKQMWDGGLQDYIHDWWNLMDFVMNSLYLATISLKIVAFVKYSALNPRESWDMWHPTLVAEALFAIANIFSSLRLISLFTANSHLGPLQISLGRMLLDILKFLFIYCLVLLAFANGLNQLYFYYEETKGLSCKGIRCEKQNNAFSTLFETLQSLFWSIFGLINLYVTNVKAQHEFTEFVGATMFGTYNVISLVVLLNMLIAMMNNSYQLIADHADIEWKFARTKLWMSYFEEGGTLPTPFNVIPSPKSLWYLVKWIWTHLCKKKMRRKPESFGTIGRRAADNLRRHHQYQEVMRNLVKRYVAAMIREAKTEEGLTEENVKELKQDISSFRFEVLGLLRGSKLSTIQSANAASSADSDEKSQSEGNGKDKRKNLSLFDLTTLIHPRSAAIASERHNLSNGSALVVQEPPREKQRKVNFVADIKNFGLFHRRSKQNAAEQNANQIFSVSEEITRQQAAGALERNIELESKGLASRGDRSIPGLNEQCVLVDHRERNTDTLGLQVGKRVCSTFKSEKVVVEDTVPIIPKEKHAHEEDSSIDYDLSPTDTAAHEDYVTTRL
The test is described as follows: mouse TRPC4 channel activators, dose response, cell-based, HEK293 TRPC4/mu-opioid, Fluo-4 calcium (AID 434937). Type of test: functional.

Active and inactive are the calls of the source. Some results are limits rather than exact numbers.

These results are taken from ChEMBL document CHEMBL1201862, “PubChem BioAssay data set” (2004).

Chain of 5-hydroxytryptamine receptor 5A (P47898 whole entry): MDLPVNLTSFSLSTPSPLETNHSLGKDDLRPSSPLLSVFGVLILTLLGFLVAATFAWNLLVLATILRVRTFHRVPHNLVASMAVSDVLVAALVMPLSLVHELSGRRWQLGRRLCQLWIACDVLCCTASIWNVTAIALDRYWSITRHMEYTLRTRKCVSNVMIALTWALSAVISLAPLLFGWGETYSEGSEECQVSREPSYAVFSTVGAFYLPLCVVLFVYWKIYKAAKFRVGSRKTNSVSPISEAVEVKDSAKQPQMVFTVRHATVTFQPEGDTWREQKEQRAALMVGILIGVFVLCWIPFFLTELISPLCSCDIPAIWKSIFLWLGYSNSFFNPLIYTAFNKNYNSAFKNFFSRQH
Chain of Mu-type opioid receptor (P35372 whole entry): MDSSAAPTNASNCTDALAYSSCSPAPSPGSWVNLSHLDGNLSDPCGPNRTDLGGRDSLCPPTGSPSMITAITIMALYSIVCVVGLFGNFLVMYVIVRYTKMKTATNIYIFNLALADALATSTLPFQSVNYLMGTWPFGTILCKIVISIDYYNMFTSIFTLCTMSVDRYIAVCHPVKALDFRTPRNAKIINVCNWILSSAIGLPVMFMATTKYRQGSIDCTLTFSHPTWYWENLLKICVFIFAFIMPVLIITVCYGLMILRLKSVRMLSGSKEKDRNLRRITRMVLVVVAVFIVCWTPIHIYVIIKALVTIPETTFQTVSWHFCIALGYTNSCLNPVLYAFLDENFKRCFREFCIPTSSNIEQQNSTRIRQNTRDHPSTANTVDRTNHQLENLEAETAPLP
Chain of Delta-type opioid receptor (P41143 whole entry): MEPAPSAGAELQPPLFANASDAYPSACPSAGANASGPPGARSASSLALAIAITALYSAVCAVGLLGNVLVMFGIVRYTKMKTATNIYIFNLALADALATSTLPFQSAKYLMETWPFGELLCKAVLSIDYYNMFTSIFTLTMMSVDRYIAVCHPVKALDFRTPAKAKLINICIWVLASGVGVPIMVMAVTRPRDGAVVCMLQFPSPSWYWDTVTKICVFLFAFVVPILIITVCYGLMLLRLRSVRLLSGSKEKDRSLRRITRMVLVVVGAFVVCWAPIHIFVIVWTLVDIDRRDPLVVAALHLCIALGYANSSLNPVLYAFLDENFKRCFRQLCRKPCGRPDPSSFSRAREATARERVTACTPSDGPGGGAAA

As for `O=C(CSc1ccc(Cl)cc1)Nc1ccc(-c2nc3ccccc3[nH]2)cc1`, the EC50 (at Mu-type opioid receptor; in test [1]; in test [2]) was > 92.5 µM (inactive) each time.
With `CN(C)S(=O)(=O)c1cccc(C(=O)OCC(=O)Nc2sccc2C#N)c1`, the AC50 in test [3] was > 100 µM (inactive).
As to `Cc1ccc(Cl)c(OCCCN(C)Cc2ccccc2)c1`, the half-inhibitory concentration (IC50) in test [4] is 165 µM (active). The CC50 in test [5] was 100 µM (active).
On to `O=Cc1ccc(N2N=C(c3ccccc3)CC2c2ccccc2)cc1` (stereo not given), for which the AC50 in [3] was 26.5 µM (active).
For `Cc1n[nH]c(O)c1C(c1c(C)n[nH]c1O)c1cn(Cc2ccc(F)cc2)c2ccccc12`, the figures for the half-maximal inhibitory concentration (IC50) (in [6]; on Nonstructural protein 1; in [7]) were 6.07 µM (active), 47.2 µM (active) and 5.81 µM (active), respectively.
Regarding `OCC1(CCc2ccccc2)CCN(Cc2ccccc2Cl)CC1`, the EC50 was 67.6 µM (inactive) at Mu-type opioid receptor, > 92.4 µM (inactive) in test [1] and > 92.4 µM (inactive) in test [2].
`CCOC(=O)C1(CCOc2ccccc2)CCN(Cc2cccn2-c2cccnc2)CC1`: the EC50 at Mu-type opioid receptor is 17.5 µM (inactive); in [8], 2.94 µM (active); in test [1], > 92.5 µM (inactive); in [9] it was > 30 µM (not active); in [2], > 92.5 µM (inactive).
`Cc1c(CN(C)C)c2c(n1C)C(=O)c1ccc(Br)cc1-2`: the AC50 in test [10] is 11.8 µM (active).
As for `CCC1(C)CC(CCNCc2ccc(N(C)C)cc2)(c2ccc(F)cc2)CCO1` (stereo not given), the EC50 on Mu-type opioid receptor is 29.2 µM (inactive); in test [1] it was > 92.3 µM (inactive); in test [2], > 92.3 µM (inactive); in [11], 5.96 µM (active).
On to `CCc1ccc(O)c(/N=C/c2ccccc2O)c1`, for which the IC50 in test [4] was 36.9 µM (active). The cytotoxic concentration (CC50) in test [5] is 100 µM (active).

Broadly, the EC50 is the midpoint of the concentration-response curve. Broadly, the AC50 is the concentration giving half of the maximal activity seen. As a reminder, the IC50 is the point on the concentration scale where inhibition reaches its midpoint. As a reminder, the CC50 is the concentration that lowers cell viability or growth by half.
